Several values for one entry are separate records, joined by “and”; a condition that tells them apart may be missing. Equal entries are not always repeated. Where two headings read alike, the source gives them in different places.

Data set [1] concerns the target T1, ENT1 (Homo sapiens, UniProt Q99808).
T1 sequence (Q99808 1-456): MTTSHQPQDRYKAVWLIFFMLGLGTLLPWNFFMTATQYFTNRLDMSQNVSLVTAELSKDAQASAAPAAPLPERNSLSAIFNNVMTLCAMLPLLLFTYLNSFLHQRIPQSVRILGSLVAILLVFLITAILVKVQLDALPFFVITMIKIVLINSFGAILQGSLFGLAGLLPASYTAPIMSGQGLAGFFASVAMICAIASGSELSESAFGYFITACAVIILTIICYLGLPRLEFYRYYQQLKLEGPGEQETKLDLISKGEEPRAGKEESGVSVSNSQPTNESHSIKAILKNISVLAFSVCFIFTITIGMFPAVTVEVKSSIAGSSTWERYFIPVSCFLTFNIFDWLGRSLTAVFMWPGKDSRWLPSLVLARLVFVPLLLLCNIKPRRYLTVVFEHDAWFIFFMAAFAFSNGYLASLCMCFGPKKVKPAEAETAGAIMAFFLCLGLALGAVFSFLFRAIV
Briefly: Kinetics of radiolabeled uridine uptake, ENT1 cell line. The format is cell-based. The settings on record: 5 min uptake, pH 7.4.

Data set [2] concerns the target T2, ENT2 (Homo sapiens, UniProt Q14542).
T2 sequence (Q14542 1-456): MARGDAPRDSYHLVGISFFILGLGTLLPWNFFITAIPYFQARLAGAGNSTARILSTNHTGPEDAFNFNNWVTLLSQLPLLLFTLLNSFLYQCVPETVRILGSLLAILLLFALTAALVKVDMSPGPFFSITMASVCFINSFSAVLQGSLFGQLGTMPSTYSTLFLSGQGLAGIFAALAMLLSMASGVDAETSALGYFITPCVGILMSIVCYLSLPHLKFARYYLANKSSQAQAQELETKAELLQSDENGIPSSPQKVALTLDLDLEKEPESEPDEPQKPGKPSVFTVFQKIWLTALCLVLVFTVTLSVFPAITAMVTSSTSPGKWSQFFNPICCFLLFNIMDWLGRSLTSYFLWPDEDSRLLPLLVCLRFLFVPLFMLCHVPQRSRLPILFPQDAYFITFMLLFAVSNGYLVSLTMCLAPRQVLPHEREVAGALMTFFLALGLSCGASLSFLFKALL
Conditions: 5 min uptake, pH 7.4.

Data set [3] has as its target T1, ENT1. Put plainly: Inhibition of [3H]uridine uptake into WT HeLa. The format is cell-based. The settings on record: for inhibition at 20 µM: HeLa.
The target of data set [4] is T2, ENT2. Briefly: Inhibition of [3H]uridine uptake into HeLa FlpIn cells overexpressing hENT2. Conditions: for ENT2 % Inhibition (20μM): 20 μM compound, 5 min [3H]uridine uptake, HeLa cells overexpressing hENT2; for inhibition at 20 µM: HeLa. It is filed as cell-based.
For data set [5] the following is noted: ref Table S8, cited from earlier work.
Another data set concerns HeLa S2 cell line. Briefly: Functional assessment: NBMPR block of [3H]uridine uptake in HeLa S2 cells. It is filed as cell-based, human. Conditions: 100 nM NBMPR, 2 minutes.
The test system of data set [6] is HeLa FlpIn ENT2 cell line. Conditions: 2 minutes.
The mark [7] stands for this setting: read-out: ENT1 % Inhibition (20μM).
Where [8] appears, read: read-out: ENT2 % Inhibition (20μM).

On to `O=c1ccn([C@@H]2O[C@H](CO)[C@@H](O)[C@H]2O)c(=O)[nH]1` [uridine], for which, at ENT1 [1], the “Jmax, maximal rate of uridine transport” value was found to be 20.2 ± 5.1 pmol·cm^−2·min^−1 and the “Kt, Michaelis constant for uridine” value came out at 37.7 ± 12.9 µM. Besides, the “Kt, Michaelis constant for uridine” value on ENT2 [2] was 119.1 ± 28.9 µM.
Turning to `Cc1ccc([C@@H]2O[C@H](CO)[C@@H](O)[C@H](O)[C@H]2O)cc1Cc1ccc(-c2ccc(F)cc2)s1` [canagliflozin], the “ENT1 % Inhibition (20μM)” value on ENT1 [3] (20 μM compound, 5 min [3H]uridine uptake, WT HeLa cells) was found to be 74.5%. Further, at ENT1 [3] (read-out: ENT1 IC50 (μM) ± SD, 5 min uptake of ~10 nM [3H]uridine, WT HeLa cells), the IC50 (as a rule, the concentration that inhibits the measured activity by half) stood at 24 ± 5.1 µM. In addition, the “ENT2 % Inhibition (20μM)” value at ENT2 [4] was 56.5%.
Regarding `O=c1[nH]c2ccccc2n1CCCN1CCC(n2c(=O)[nH]c3cc(Cl)ccc32)CC1` [domperidone], the inhibition (as a rule, the share of the control response that was lost under treatment) at 20 µM on ENT1 [3] (setting [7]) is 24.4%; at ENT2 [4] (setting [8]) it was 64.3%. At ENT2 [4], this molecule yielded a concentration for half-maximal inhibition (IC50) of 0.16 ± 0.04 µM.
With `O=c1c(O)c(-c2cc(O)c(O)c(O)c2)oc2cc(O)cc(O)c12` [myricetin], the IC50 at ENT1 [3] was found to be 47.4 ± 1.7 µM; against ENT2 [4] it was 28.2 ± 1.6 µM. Moreover, the inhibition at 20 µM at ENT1 [3] (setting [7]) was found to be 82.4%.
As for `COc1ccc(-c2cc(=O)c3c(OC)c(OC)c(OC)cc3o2)cc1OC` [sinensetin], the IC50 turned out to be 1.25 ± 0.3 µM against ENT1 [3] and 22.2 ± 2.2 µM against ENT2 [4]. In addition, the inhibition at 20 µM is 95.9% on ENT1 [3] (setting [7]); around 80% on ENT1 [3] (read-out: ENT1 inhibition of uridine uptake (Spectrum screen, text)); 82.5% on ENT2 [4] (setting [8]); 35% at ENT2 [4] (read-out: ENT2 inhibition of transport activity (Spectrum screen, text)).
For the molecule `CC(=O)N1CCN(c2ccc(OCC3COC(Cn4ccnc4)(c4ccc(Cl)cc4Cl)O3)cc2)CC1` (stereo not drawn) [ketoconazole], the values for the IC50 against ENT1 [3] and against ENT2 [4] were 7.2 ± 1.2 µM and 22.8 ± 0.7 µM, respectively. Moreover, the inhibition at 20 µM on ENT1 [3] (setting [7]) came to 98.4%; at ENT2 [4] (setting [8]) it was 89.4%. In addition, the “human plasma levels (molar)” value in data set [5] (converted from ng/mL) is 6.6 µM and 11.3 µM. In addition, the human plasma levels in data set [5] (documented clinical concentrations) is 3500 ng/mL and 6000 ng/mL.
On to `CCc1oc2ccccc2c1C(=O)c1cc(Br)c(O)c(Br)c1` [benzbromarone], for which the 50% inhibitory concentration (IC50) came to 29.8 ± 2.1 µM against ENT1 [3] and 262 ± 108 µM against ENT2 [4]. Also, the inhibition at 20 µM at ENT1 [3] (setting [7]) was determined as 79.6%; on ENT2 [4] (setting [8]), 25.4%.
As to `NC[C@H]1O[C@H](O[C@H]2[C@H](O)[C@@H](O[C@H]3O[C@H](CO)[C@@H](O)[C@H](N)[C@H]3O)[C@H](N)C[C@@H]2N)[C@H](O)[C@@H](O)[C@@H]1O` [kanamycin], the “ENT1 % Inhibition (20μM)” value on ENT1 [3] amounted to 43.7%. Further, on ENT2 [4], the “ENT2 % Inhibition (20μM)” value came to 11.7%.
For `O=[N+]([O-])c1ccc(CSc2ncnc3c2ncn3C2OC(CO)C(O)C2O)cc1` (stereo not drawn) [NBMPR, nitrobenzylthioinosine], the “reduction of [3H]uridine uptake” value in the data set on HeLa S2 cell line is 65–75%. In addition, in data set [6] (100 nM NBMPR), the “total [3H]uridine uptake blocked” value is reported as ~ 55%. In data set [6] (100 μM NBMPR), the “total [3H]uridine uptake reduced” value is listed as ~ 80%.

These data come from article PMC12486301 (The Journal of pharmacology and experimental therapeutics, 2025).
